Assay results reported in patent US8507473B2, “3H-imidazo[4,5-b]pyridin-5-ol derivatives useful in the treatment of GPR81 receptor disorders” (Arena Pharmaceuticals, Inc., priority 2008, dated 2013).

How the values were obtained:
GPR81 [1] = target: T1, GPR81 (Homo sapiens, UniProt Q9BXC0); experiment: HTRF assay for direct cAMP measurement; format: cell-based; settings: CHO-K1 cells stably transfected with GPR81, forskolin-stimulated cAMP
T1 construct: expressed in transfected cells; host or cells: CHO-K1 (ATCC CCL-61), recombinant, stably transfected
T1 sequence (Q9BXC0 whole entry): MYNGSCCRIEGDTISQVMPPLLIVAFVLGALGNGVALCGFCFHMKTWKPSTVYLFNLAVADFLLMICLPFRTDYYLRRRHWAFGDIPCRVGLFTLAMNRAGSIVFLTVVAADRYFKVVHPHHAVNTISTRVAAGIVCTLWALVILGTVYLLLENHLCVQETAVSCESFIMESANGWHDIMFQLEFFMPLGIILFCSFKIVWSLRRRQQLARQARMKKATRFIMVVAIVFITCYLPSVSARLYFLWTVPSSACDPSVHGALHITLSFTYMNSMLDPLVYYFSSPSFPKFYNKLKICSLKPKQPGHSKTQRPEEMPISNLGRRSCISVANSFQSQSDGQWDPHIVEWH
Text: Compounds were screened for agonists of GPR81 (e.g., human GPR81) using an HTRF® assay for direct cAMP measurement (Gabriel et al, ASSAY and Drug Development Technologies, 1:291-303, 2003) and recombinant CHO-K1 cells stably transfected with GPR81. CHO-K1 cells were obtained from ATCC® (Manassas, Va.; Catalog #CCL-61). An agonist of GPR81 was detected in the HTRF® assay for direct cAMP measurement as a compound which decreased cAMP concentration. The HTRF® assay also was used to determine EC50 values for GPR81 agonists.
The HTRF® assay kit was purchased from Cisbio-US, Inc. (Bedford, Mass.; Catalog #62AM4PEC). The HTRF® assay supported by the kit is a competitive immunoassay between endogenous cAMP produced by the CHO-K1 cells and tracer cAMP labeled with the dye d2. The tracer binding is visualized by a monoclonal anti-cAMP antibody labeled with Cryptate. The specific signal (i.e., fluorescence resonance energy transfer, FRET) is inversely proportional to the concentration of unlabeled cAMP in the standard or sample.
The fluorescence ratio of the samples (test compound or compound buffer) was calculated and used to deduce respective cAMP concentrations by reference to the cAMP standard curve.
The HTRF® assay was carried out using a two-step protocol essentially according to the kit manufacturer's instructions, in 20 μL total volume per well in 384-well plate format (ProxiPlates; PerkinElmer, Fremont, Calif.; catalog #6008280). To each of the experimental wells was transferred 1000 recombinant CHO-K1 cells in 5 μL phosphate buffered saline containing calcium chloride and magnesium chloride (“PBS+”; Invitrogen, Carlsbad, Calif.; catalog #14040) supplemented with IBMX (100 μM) (phosphodiesterase inhibitors; Sigma-Aldrich, St. Louis, Mo.; catalog #I-5879), followed by test compound in 5 μL compound buffer (PBS+ supplemented with 10 μM forskolin (Sigma-Aldrich, St. Louis, Mo.; catalog #F-6886)). The plate was then incubated at room temperature for 1 hour. To each well was then added 5 μl cAMP-d2 conjugate in lysis buffer and 5 μL Cryptate conjugate in lysis buffer according to the kit manufacturer's instructions. The plate was then further incubated at room temperature for 1 hour, after which the assay plate was read.
HTRF® readout was accomplished using a PHERAstar (BMG LABTECH Inc., Durham, N.C.) or EnVision™ (PerkinElmer, Fremont Calif.) microplate reader.

[2] = test system: rat epididymal adipocytes; experiment: Glycerol assay (rat adipocyte lipolysis); format: cell-based; settings: rat epididymal adipocytes in vitro, FIG. 5
Procedure: Free glycerol was determined using a free glycerol reagent, Reagent A (Sigma). Adipocyte media (10 μL) was removed and replated in a flat-bottom 96-well plate. Reagent A (100 μL) was then added to each well. After 10-15 minutes, abroad sorbance was read at OD540 on a Spectramax 340PC microplate reader (Molecular Devices). The amount of glycerol released was calculated based on regression analysis of known glycerol concentrations using a glycerol standard (Sigma).
Epididymal fat pads were surgically removed from CO2-anesthetized male Sprague Dawley rats, weighing 300-500 g. The adipose tissue was minced and suspended in Krebroad s-Ringer bicarbonate HEPES buffer (containing […], […] (monobasic), […] MgSO4.7H2O, […] CaCl2, 1 mM NaHCO3, 3 mM HEPES, 200 nM adenosine, and 1% BSA) with 2.5 mg of collagenase (Sigma) per gram of tissue. The suspension was incubated in an orbital shaker at 37° C. for 40 minutes with constant agitation. Cells were then filtered through a 500 μm mesh filter. For each filter used, 10 mL of buffer was added to the cell suspension to aid with the filtration. Cells were spun at 1000 rpm for 1 minute. A glass Pasteur pipette was then used to remove all buffer remaining below the floating adipocyte layer. Approximately 30 mL of new buffer was then added to the adipocytes and they were incubated for 5 minutes at 37° C. […]

Male C57/B16 mice = experiment: NEFA assay, circulating free fatty acids in mice; format: in vivo, mouse; settings: FIG. 7
Procedure: (§1) The supplied standard was diluted with DI water to 1, 0.5, 0.25, 0.125, 0.0625, 0.03125. A water blank was also prepared. Serum samples and standards were dispensed (5 μl/well) to wells of a 96-well plate. Reagent A (100 μL) was added to each well and incubated for 10 minutes at 37° C. Reagent B (200 μL) was then added to each well and incubated for another 10 minutes at 37° C. After equilibration for 5 minutes at room temperature (about 25° C.), the abroad sorbance was measured on a plate reader at 550 nm.
Male C57/B16 mice (8-10 weeks old; about 23 g) were food deprived (by removing food pellets from the cage) for 5 hours with ad libitum access to water. Animals were then dosed with vehicle (5% HPBCD) or drug via intraperitoneal (IP) injection at the desired concentration in a volume of 10 mL/kg. After 30 minutes, mice were euthanized via CO2 asphyxiation and about 300 μl of blood were immediately collected by cardiac puncture. The blood was transferred to an Eppendorf tube and capped on ice. The blood was then centrifuged on a table top centrifuge (4000 rpm at 4° C. for 10 minutes). Serum was collected in a new microfuge tube and re-centrifuged (4000 rpm at 4° C. for 10 minutes). Serum samples were dispensed (5 μl/well) to wells of a 96-well plate.

Male Sprague Dawley rats = experiment: NEFA assay, circulating free fatty acids in rats; format: in vivo, rat; settings: after injection of 100 mpk, FIG. 6
Procedure: as §1
Male Sprague Dawley rats (10-12 weeks old) were obtained from Charles River Labroad s pre-cannulated with right jugular catheters for sample collection. Rats were food deprived overnight (by removing food pellets from the cage) for approximately 16 hours with ad libitum access to water. Canulae were flushed with saline to remove heparin and to clear the catheter line 30 minutes prior to the first (basal) sample collection. Basal samples were collected in a staggered dose manner (e.g. vehicle, high dose, low dose, low dose, high dose, and vehicle). Rats were injected per oral (PO), 2 mL/kg with 5% HPBCD (Hydroxypropyl-β-cyclodextrin) or with drug in 5% HPBCD. Blood (500-700 μl) was drawn via catheter at 10, 20, 40, 60, 120, and 240 minutes post dosing, and saline (about 200 μl) was infused into the catheter to ensure patency. […]

GPR81 [3] = target: T1, GPR81; experiment: GPR81 [35S]GTPγS binding assay; format: biochemical; settings: membranes of CHO-K1 cells stably transfected with GPR81
Procedure: Compounds were screened for agonism of GPR81 (e.g. human GPR81) using a GTPγS binding assay and CHO-K1 cells stably transfected with GPR81.
GPR81 stably transfected CHO-K1 cells were grown in F-12 Kaighn's Modified Cell Culture Medium with 10% FBS, 2 mM L-glutamine, 1 mM sodium pyruvate and 400 μg/ml G418. For 15 cm^2 plates, cells were rinsed with 5 mL cold PBS and aspirated. Cold membrane scrape buffer (20 mM HEPES, 10 mM EDTA, pH 7.4) was added and cells were scraped off the plate and transferred to a 50 mL centrifuge tube. Cells were spun at 20,000 rpm for 17 minutes at 4° C. The supernatant was aspirated and the pellet was re-suspended in cold membrane wash buffer (30 mL, 20 mM HEPES, 0.1 mM EDTA, pH 7.4). Cells were spun at 20,000 rpm for 17 minutes at 4° C. The supernatant was aspirated away from the membrane pellet. The pellet may be frozen at −80° C. for later use or may be used immediately.
The membrane pellet was thawed (if frozen) on ice and homogenized briefly until in suspension using a polytron mixer (POLYTRON PT3100, probe PT-DA 3007/2 at setting of 7000 rpm). The membrane protein concentration was determined using a Bradford assay. The membrane protein was diluted to a protein concentration of 0.20 mg/mL in binding buffer (20 mM HEPES, pH 7.4, 100 mM NaCl, 10 mM MgCl2) for a final assay concentration of 5 μg/well. Compound plates to be screened were thawed (daughter plates with 5 μL compound@2 mM in 100% DMSO). The 2 mM compounds were diluted 1:50 with 245 μL GDP buffer (binding buffer plus GDP, Sigma-Aldrich Catalog #87127, ranging from 0.4 to 40 μM, made fresh before assay) to 40 μM in 2% DMSO. Compounds in GDP buffer (25 were added per well of a Scintistrip plate (Wallac Catalog #1450-501) and then 50 μL of membrane preparation (0.4 mg protein/mL) was added to each well. The plates were then covered with foil and incubated for 5-10 minutes at room temperature. Subsequently, 25 μL of diluted [^35S]GTPγS (Amersham Biosciences Catalog #SJ1320, about 2000 Ci/mmol (made by adding 5 μL [^35S]GTPγS stock into 10 ml binding buffer) was added to the wells. The plates were covered with foil and incubated on a shaker (Lab-Line model #1314, at setting of 4) for 60 minutes at room temperature. The assay was stopped by sealing the plates with plate covers and spinning the plates at 4000 rpm for 15 minutes at 22° C. The supernatant of each well was apirated using an eight-channel manifold and the plate was read in a Wallac Microbeta counter 1450 set up to detect ^35S.

Row | Structure (SMILES) | EC50 (GPR81 [1]) [nM] | EC50 (GPR81 [3]) [nM] | other results
1 | Nc1nc2ccc(O)nc2n1-c1ccccc1 [Compound 9, 2-Amino-3-phenyl-3H-imidazo[4,5-b]pyridin-5-ol] | 1050 | – | –
2 | Oc1ccc2ncn(-c3ccccc3Cl)c2n1 [Compound 25, 3-(2-Chlorophenyl)-3H-imidazo[4,5-b]pyridin-5-ol] | – | – | inhibition of lipolysis [2]: inhibition of lipolysis; circulating free fatty acids (Male C57/B16 mice): significant decrease of circulating free fatty acids; circulating free fatty acids (Male Sprague Dawley rats): significant decrease of circulating free fatty acids
3 | Oc1ccc2ncn(-c3ccccc3C(F)(F)F)c2n1 [Compound 28, 3-(2-(Trifluoromethyl)phenyl)-3H-imidazo[4,5-b]pyridin-5-ol] | – | – | circulating free fatty acids (Male C57/B16 mice): significant decrease of circulating free fatty acids
4 | Oc1ccc2ncn(C3CCCCCC3)c2n1 [Compound 48, 3-Cycloheptyl-3H-imidazo[4,5-b]pyridin-5-ol] | 350 | – | –
5 | Oc1ccc2ncn(-c3cccc(Cl)c3F)c2n1 [Compound 50, 3-(3-Chloro-2-fluorophenyl)-3H-imidazo[4,5-b]pyridin-5-ol] | 2760 | – | –
6 | Oc1ccc2ncn(-c3ccc(Cl)cc3C(F)(F)F)c2n1 [Compound 56, 3-(4-Chloro-2-(trifluoromethyl)phenyl)-3H-imidazo[4,5-b]pyridin-5-ol] | – | 1390 | –
7 | Cc1c(F)cccc1-n1c(N)nc2ccc(O)nc21 [Compound 64, 2-Amino-3-(3-Fluoro-2-methylphenyl)-3H-imidazo[4,5-b]pyridin-5-ol] | 2330 | – | –
8 | Oc1ccc2ncn(C34CC5CC(CC(C5)C3)C4)c2n1 [Compound 114, 3-(Adamant-1-yl)-3H-imidazo[4,5-b]pyridin-5-ol] | – | 30.3 | –
9 | Oc1ccc2nc(Cl)n(C3CCCCC3)c2n1 [Compound 127, 2-Chloro-3-cyclohexyl-3H-imidazo[4,5-b]pyridin-5-ol] | – | 75.3 | –
10 | Oc1ccc2nc(Cl)n(-c3ccccc3C3CC3)c2n1 [Compound 133, 2-Chloro-3-(2-Cyclopropylphenyl)-3H-imidazo[4,5-b]pyridin-5-ol] | – | 81.5 | –
